Assay results taken from US8435955B2, “Antibacterial deodorant” (priority 2008, dated 2013).

What was measured:
Deodorization test 1 [1] = settings: Ammonia; for Reduction: initial 100 ppm, after 30 minutes; for Reduction / Concentration after 30 minutes: 0.2 ml of 10% by weight aqueous solution; for Concentration after 30 minutes: initial concentration 100 ppm
Deodorization test 1 [2] = settings: Trimethylamine; for Reduction: initial 20 ppm, after 30 minutes; for Reduction / Concentration after 30 minutes: 0.2 ml of 10% by weight aqueous solution; for Concentration after 30 minutes: initial concentration 20 ppm
Deodorization test 1 [3] = settings: Methyl mercaptan; for Reduction: initial 10 ppm, after 30 minutes; for Reduction / Concentration after 30 minutes: 0.2 ml of 10% by weight aqueous solution; for Concentration after 30 minutes: initial concentration 10 ppm
Deodorization test 1 [4] = settings: Formaldehyde, 0.2 ml of 10% by weight aqueous solution; for Reduction: initial 10 ppm, after 30 minutes; for Concentration after 30 minutes: initial concentration 10 ppm
Deodorization test 1 [5] = settings: Acetaldehyde; for Reduction: initial 10 ppm, after 30 minutes; for Reduction / Concentration after 30 minutes: 0.2 ml of 10% by weight aqueous solution; for Concentration after 30 minutes: initial concentration 10 ppm
Deodorization test 1 [6] = settings: Isovaleric acid; for Reduction: initial 10 ppm, after 30 minutes; for Reduction / Concentration after 30 minutes: 0.2 ml of 10% by weight aqueous solution; for Concentration after 30 minutes: initial concentration 10 ppm
Deodorization test 1 [7] = settings: Acetic acid; for Reduction: initial 20 ppm, after 30 minutes; for Reduction / Concentration after 30 minutes: 0.2 ml of 10% by weight aqueous solution; for Concentration after 30 minutes: initial concentration 20 ppm
Deodorization test 1 [8] = settings: Toluene, 0.2 ml of 10% by weight aqueous solution; for Reduction: initial 100 ppm, after 30 minutes; for Concentration after 30 minutes: initial concentration 100 ppm
Deodorization test 1 [9] = settings: Styrene, 0.2 ml of 10% by weight aqueous solution; for Reduction: initial 100 ppm, after 30 minutes; for Concentration after 30 minutes: initial concentration 100 ppm

Row | SMILES | Reduction (Deodorization test 1 [1]) [%] | Concentration after 30 minutes (Deodorization test 1 [1]) [ppm] | Reduction (Deodorization test 1 [2]) [%] | Concentration after 30 minutes (Deodorization test 1 [2]) [ppm] | Reduction (Deodorization test 1 [3]) [%] | Concentration after 30 minutes (Deodorization test 1 [3]) [ppm] | Reduction (Deodorization test 1 [4]) [%] | Concentration after 30 minutes (Deodorization test 1 [4]) [ppm] | Reduction (Deodorization test 1 [5]) [%] | Concentration after 30 minutes (Deodorization test 1 [5]) [ppm] | Reduction (Deodorization test 1 [6]) [%] | Concentration after 30 minutes (Deodorization test 1 [6]) [ppm] | Reduction (Deodorization test 1 [7]) [%] | Concentration after 30 minutes (Deodorization test 1 [7]) [ppm] | Reduction (Deodorization test 1 [8]) [%] | Concentration after 30 minutes (Deodorization test 1 [8]) [ppm] | Reduction (Deodorization test 1 [9]) [%] | Concentration after 30 minutes (Deodorization test 1 [9]) [ppm] | also measured
1 | N[C@@H](Cc1c[nH]c2ccccc12)C(=O)O [Tryptophan] | 50 | 50 | 50 | 10 | 0 | 10 | 10 | 9 | 10 | 9 | 0 | 10 | 10 | 18 | 0 | 100 | 0 | 100 | 
2 | CSCC[C@H](N)C(=O)O [Methionine] | 30 | 70 | 10 | 18 | 0 | 10 | 10 | 9 | 10 | 9 | 0 | 10 | 10 | 18 | 10 | 90 | 10 | 90 | 
3 | CC(C)[C@H](N)C(=O)O [Valine] | 10 | 90 | 5 | 19 | 0 | 10 | 0 | 10 | 0 | 10 | 0 | 10 | 0 | 20 | 0 | 100 | 0 | 100 | 
4 | N=C(N)NCCC[C@H](N)C(=O)O [Arginine] | 10 | 90 | 5 | 19 | 0 | 10 | 0 | 10 | 10 | 9 | 0 | 10 | 15 | 17 | 0 | 100 | 0 | 100 | 
5 | N[C@@H](CS)C(=O)O [Cysteine] | 100 | 0 | 100 | 0 | 0 | 10 | 20 | 8 | 0 | 10 | 20 | 8 | 20 | 16 | 10 | 90 | 10 | 90 | deodorizing action (in words) (Deodorization test 1 [1]): excellent deodorizing action; deodorizing action (in words) (Deodorization test 1 [2]): excellent deodorizing action
6 | NCCCC[C@H](N)C(=O)O [Lysine] | 10 | 90 | 10 | 18 | 0 | 10 | 0 | 10 | 10 | 9 | 0 | 10 | 0 | 20 | 0 | 100 | 0 | 100 | 
7 | NCC(=O)O [Glycine] | 100 | 0 | 100 | 0 | 100 | 0 | 70 | 3 | 80 | 2 | 90 | 1 | 90 | 2 | 60 | 40 | 60 | 40 | deodorizing action (in words) (Deodorization test 1 [1]): excellent deodorizing action; deodorizing action (in words) (Deodorization test 1 [2]): excellent deodorizing action; deodorizing action (in words) (Deodorization test 1 [3]): excellent deodorizing action; deodorizing action (in words) (Deodorization test 1 [5]): good results; deodorizing action (in words) (Deodorization test 1 [6]): good results; deodorizing action (in words) (Deodorization test 1 [7]): good results
8 | O=C(O)[C@@H]1CCCN1 [Proline] | 10 | 90 | 5 | 19 | 0 | 10 | 0 | 10 | 20 | 8 | 0 | 10 | 0 | 20 | 0 | 100 | 0 | 100 | 
